In patent publication EP1506011B1, “AN ANTIBODY SELECTIVE FOR A TUMOR NECROSIS FACTOR-RELATED APOPTOSIS-INDUCING LIGAND RECEPTOR AND USES THEREOF” (The UAB Research Foundation, priority 2001, dated 2003):
Residues, ends and D or L forms follow the SMILES beside them. *: point of attachment. Cbz = O=C(OCc1ccccc1)*; CH2F = FC*

Tests used:
[1] = tested on: Jurkat cells; experiment: Caspase inhibition assay, Jurkat cells with TRA-8; type: cell-based, human; conditions: 50 ng/ml TRA-8 overnight
Protocol: Cell viability was determined by ATPLite, MTT, and PI exclusion assays after overnight culture. […] Cell viability was determined by ATPLite. […] Cell viability was determined by ATPLite. The results are presented as mean±SEM of triplicate cultures of two experiments. d. […] Cell viability was determined by ATPLite assay. […] Cell viability of hepatocytes was determined by the ATPLite assay. […] Cell viability was determined by the ATPLite assay.

[2] = tested on: 2LMP human breast cancer xenografts; experiment: TRA-8 therapy alone or with chemotherapy or radiation in mice bearing breast cancer xenografts; type: in vivo, Athymic nude mice; conditions: Figure 25 experiment; 200 µg TRA-8 i.p., adriamycin 6 mg/kg i.v.
Protocol: Athymic nude mice were injected s.c. with 3 x 10^7 2LMP cells. […] The growth of tumors was monitored over time. […] Tumor size and regression rates were determined.
Data from 6 independent experiments were analyzed by individual experiment. Treatment combinations were compared with respect to in vivo anti-tumor efficacy, i.e., inhibition of tumor growth, which was measured as three endpoints; extension of tumor doubling times, percentage of tumor regressions, and growth rates over time. The actual number of days at which the tumor doubled in surface area (product of two diameters) relative to baseline on day 7 after tumor cell injection was used in the doubling time analysis. The nonparametric Kruskal-Wallis test was used for median tumor doubling time comparisons between treatments. Fisher's exact test was used to compare the proportions of tumor regressions and relapse-free regressions across treatment groups. […]
A total of 166 animals, 10 treatment groups, and 6 independent experiments were included in the aggregate analysis. […] The median tumor doubling times were analyzed using the Kruskal-Wallis test and Fisher's exact test was used to compare the proportions of tumor regressions and relapse-free regressions across treatment groups.

[3] = tested on: 2LMP xenografts; experiment: Analysis of apoptosis in xenografts, TUNEL; type: in vivo, Athymic nude mice; conditions: for stained cells: day 14, 100 µg TRA-8 days 7 and 10, adriamycin 3 mg/kg or paclitaxel 10 mg/kg days 8 and 11, untreated 4%; for intense stained cells: day 14, same doses, untreated 1%
Protocol: One group of mice was untreated. The xenografts were dissected for the study of apoptosis on day 14 after tumor cell injection. The reason for the substantial reduction in treatment intensity compared to our standard treatment protocol was to allow adequate tumor tissue for analysis on day 14. Tunel assay for apoptosis in tumor xenografts was performed as follows. Five-micron paraffin sections of tissue were mounted on Superfrost/Plus slides and heated at 58°C for 1 h. Tissue sections were deparaffinized in three changes of xylene and rehydrated with one change of absolute ethanol, 95% ethanol, and 70% ethanol, each in 5-min increments. Then, the sections were placed in Tris-buffered saline (0.5M Tris base, 0.15 M NaCl, 0.0002% Triton X-100, pH 7.6). Apoptotic nuclei were detected using an Apop Tag Peroxidase kit (Intergen, Purchase, NY). Proteinase K (20 µg/ml in distilled deionized H2O) was added to the tissue specimens and incubated at room temperature for 15 min. Endogenous peroxidases were quenched with an aqueous solution of 3% hydrogen peroxide for 5 min. Sections were treated with an equilibration buffer for 30 min and then incubated with the TdT/enzyme (diluted in labeling reaction mix) for 1 h at 37°C using parafilm covers. During this incubation, the TdT enzyme binds the 3'-OH ends of DNA fragments and catalyzes the addition of digoxigenin-labeled and unlabeled deoxynucleotides. Negative controls were incubated with distilled H2O (diluted in labeling reaction mix) instead of the TdT enzyme. A stop buffer was added for 10 min at room temperature to terminate the labeling reaction. An anti-digoxigenin conjugate was added to each slide for 30 min. The chromagen 3,3' DAB was used to visualize the labeled 3' OH end of DNA fragments. The slides were then rinsed in deionized water and lightly counterstained with hematoxylin, dehydrated using graded alcohols and xylene and coverlsipped using Permount. Approximately 10 random fields were evaluated for percentage of Tunel stained and percentage of intensely stained apoptotic bodies throughout the tissue.

[4] = tested on: PC-3 cells; experiment: Combination study of TRA-8 with Paclitaxel, XTT viability; type: cell-based; conditions: Homo sapiens, PC-3, read-out: cell viability
Protocol: Human prostate cancer cell line PC-3 is obtained from American Tissue Culture Collection (ATCC) and maintained in F-12K Nutrient Mixture (21127-022, Gibco BRL) containing 10% fetal bovine serum (FBS, Hyclone), 1% L-Glutamine-200 mM (25030-149, Gibco BRL) and 0.5% Penicillin Streptomycin Solution (P-7539, Sigma). RPMI1640 medium (MED-008, IWAKI) supplemented with 10% FBS and 0.5% Penicillin Streptomycin Solution is used in the following experiment. Exponentially growing PC-3 cells are collected by trypsinization and washed twice with fresh medium. The cells are then counted, resuspended in fresh medium at a density of 5 x 10^4 cells/ml and distributed in triplicate into flat-bottomed 96 well plates (3598, Corning-Coster) in a total volume of 100 µl/well one day before the start of the experiment. A representative anti-cancer drug, Paclitaxel (169-18611, Wako) dissolved in dimethylsulfoxide (10 mg/ml) is diluted in fresh medium and then added to the 96-well plates containing the cells at 50 µl/well. The final concentrations of dimethylsulfoxide are less than 0.1%. […] After incubation for a further 24 hr, 50 µl of Minimum Essential Medium (11095-098, Gibco BRL) containing 1 mg/ml of XTT and […] of PMS is added to the wells and the plates are incubated for 6 hr. OD450 is then measured by SPECTRA MAX 250 (Molecular Devices) and the cell viability is calculated as follows.

Row | Structure (SMILES) | inhibition of TRA-8-mediated cell death [1] | inhibition of tumor growth compared to untreated controls [2] | stained cells [3] | intense stained cells [3] | viability at 0.2 µM [4]
1 | CC(NC(=O)C(NC(=O)OCc1ccccc1)C(C)C)C(=O)NC(CC(=O)O)C(=O)CF (stereo not drawn) [Z-VAD] (Cbz-Val-Ala-Asp-CH2F; configuration not given here) | completely inhibited | – | – | – | –
2 | COc1cccc2c1C(=O)c1c(O)c3c(c(O)c1C2=O)C[C@@](O)(C(=O)CO)C[C@@H]3O[C@H]1C[C@H](N)[C@H](O)[C@H](C)O1 [Adriamycin, doxorubicin] | – | did not differ from controls | 8% | 6% | –
3 | CC(=O)O[C@H]1C(=O)[C@@]2(C)[C@H]([C@H](OC(=O)c3ccccc3)[C@]3(O)C[C@H](OC(=O)[C@H](O)[C@@H](NC(=O)c4ccccc4)c4ccccc4)C(C)=C1C3(C)C)[C@]1(OC(C)=O)CO[C@@H]1C[C@@H]2O [Paclitaxel] | – | – | 7% | 2% | > 40%
